Here are results for nine molecules from PMC5349447, “Applying a high-throughput fluorescence polarization assay for the discovery of chemical probes blocking La:RNA interactions in vitro and in cells” (PLoS ONE, 2017).

In data set [1] the test system is SCC 22B cells. Description: Cisplatin sensitization, CyQUANT, SCC 22B. The format is cell-based, human. The settings on record: SCC 22B. The procedure: To test whether compound C2.01 sensitizes cells for cisplatin, cells were treated with 0.2% DMSO alone, cisplatin at 4, 8, 16, 32 or 64 μM concentration alone or in combination with 50 μM compound C2.01. The half maximal inhibitory concentration (IC50) of cisplatin was determined by treating SCC 22B cells with increasing cisplatin (Selleckchem) concentrations or vehicle (DMSO) for 48 h (96-well format) as described recently. For this experiments 1x10^4 SCC 22B cells were plated the day before the experiment. DMSO or C2.01 was added to a final concentration of DMSO (0.05%) and C2.01 (50 μM). Six hours later the different cisplatin concentrations were added. The highest DMSO concentration of 0.25% was used in the control for cisplatin and C2.01 double treatment. Subsequently, cells were washed twice with 1x PBS and quantified after staining with fluorescence dye (CyQUANT®, Life Technologies) 48 after the initial C2.01 treatment.

In a further data set the test system is SCC 22A cells. The arrangement: method as in PMID 27105491. The settings on record: used as treatment concentration, read-out: cisplatin IC50; cited from earlier work.
Another data set concerns T1, La-WT:fD1-RNA complex.
T1 construct: His; made in house; host or cells: E. coli BL21
The data set can be described thus: EMSA, compound competition, La-WT:fD1. It counts as binding, human. The settings on record: La-WT 60 nM, fD1 50 nM. As for the experimental part: 12% native TBE polyacrylamide gels were prepared in a Mini-PROTEAN Tetra Handcast System (BioRad). The gel was pre-run for 30 min at 140 V in 1x TBE buffer (45 mM Tris/HCl pH 8.5, 45 mM boric acid, 1 mM EDTA). To prepare the RNA-mix, fluorescence labeled RNA oligoribonucleotides (oligos) were diluted in fluorescence polarization buffer (20 mM Tris/HCl (pH 7.4), 150 mM NaCl, 3.0 mM MgCl2, 0.5 mM EDTA, 0.05% (v/v) IGEPAL), mixed for 10 min at 80°C, and then immediately placed on ice for at least 5 min. All RNA oligos were used at a final concentration of 50 nM. Recombinant La protein was diluted in D-buffer (20 mM Tris/ HCl (pH 7.4), 150mM NaCl, 3mM MgCl2, 0.5mM EDTA, 5% glycerol) and placed on ice until use.
La titration was performed at final concentrations of 20, 40, 60, 100, 200, 300, 400, 500, 600 nM La. Three different La concentrations were used for compound studies: 60 nM for fD1 RNA, 200 nM for fPolyU RNA, and 150 nM for TOPf RNA studies. Two μl of diluted compound (diluted in 100% DMSO) or 2 μl 100% DMSO (control reaction) was combined with 8 μl La-mix in a 96-well plate. 10 μl RNA-mix was added, mixed for 2 min, and incubated for 10 min at RT in the dark. Final concentrations in the reaction: 18 mM Tris/HCl (pH 7.4), 135 mM NaCl, 2.7 mM MgCl2, 0.45 mM EDTA, 0.025% (v/v) IGEPAL, 2% glycerol, 10% DMSO). Samples were loaded onto the pre-run gel without any loading buffer. Gels were run at 160 V for 40 min in the dark. The gels were carefully transferred to a clear plastic wrap and scanned using a Typhoon FLA900 imager. The La-RNA complex (La-RNP) formation was quantified using the ImageQuant TL software.
Next we used our established EMSA to test whether compound C2 and C6 can compete against the three RNA oligos: fD1, fPolyU, and TOPf. All of the EMSA reactions were loaded in the following order: lane 1 contains the RNA oligo alone; lane 2 contains the RNA oligo plus La protein at concentration that shifts 50% of the RNA oligo (positive control); lanes 3–9 contain the RNA oligo, La protein and decreasing concentrations of the compound; and lane 10 contains the RNA oligo and the highest compound concentration (negative control).

Data set [2] concerns SCC 22B cells. The data set can be described thus: Cell toxicity, CyQUANT cell number, SCC 22B. The format is cell-based, human. Particulars: for effect on SCC 22B cell numbers: 48 h, 12.5-150 μM. As for the experimental part: (§1) Normal fibroblast MRC5 and human embryonic kidney HEK293 cells were purchased from ATCC. Head and neck squamous cell carcinoma cell lines UM-SCC 22A (SCC 22A) and UM-SCC 22B (SCC 22B) were described elsewhere. MRC5 cells were cultured in EMEM plus 10% FBS; SCC 22A, SCC 22B, and HEK293 cells were cultured in advanced DMEM (Gibco) containing 2 mM L-glutamine (Life Technology) and 10% FBS. All cell lines were tested for mycoplasma contamination by applying a MycoSensor PCR Assay kit according to the manufacturer’s instructions (Agilent Technologies).
(§2) To test for cell toxicity the compounds were dissolved in 100% DMSO to a concentration of 100 mM. Subsequently, compounds were diluted in media to 10 mM (10% DMSO), 1 mM (1% DMSO) and tested at 150, 125, 100, 75, 50, 25 μM in SCC 22B and MRC5 cells. To reach this concentration compounds (stock 1 mM, 1% DMSO) were diluted in the cell culture dish (96-well format, 100 μl final volume) as follows: 150 μM = 6.7 fold (final DMSO: 0.15%); 125 μM = 8.0 fold (final DMSO: 0.125%); 100 μM = 10 fold (final DMSO: 0.1%); 75 μM = 13.3 fold (final DMSO: 0.075%); 50 μM = 20 fold (final DMSO: 0.05%); and 25 μM = 40 fold (final DMSO: 0.025%). As a control the highest DMSO concentration of 0.15% was used. Cells were cultured in appropriate media (see above) for 48h. Subsequently, cells were washed twice with 1x PBS and quantified after staining with fluorescence dye (CyQUANT®, Life Technologies). For this experiments 3x10^4 of MRC5 and 1x10^4 SCC 22B cells were plate the day before the experiment.

A further data set has as its system MRC5 cells. The data set can be described thus: Cell toxicity, CyQUANT cell number, MRC5. It counts as cell-based, human. Particulars: 48 h, up to 150 μM. As for the experimental part:
as §1, §2

Data set [3] concerns the target T2, La-WT (La autoantigen, LARP3) (human, UniProt P05455 1-408).
T2 sequence: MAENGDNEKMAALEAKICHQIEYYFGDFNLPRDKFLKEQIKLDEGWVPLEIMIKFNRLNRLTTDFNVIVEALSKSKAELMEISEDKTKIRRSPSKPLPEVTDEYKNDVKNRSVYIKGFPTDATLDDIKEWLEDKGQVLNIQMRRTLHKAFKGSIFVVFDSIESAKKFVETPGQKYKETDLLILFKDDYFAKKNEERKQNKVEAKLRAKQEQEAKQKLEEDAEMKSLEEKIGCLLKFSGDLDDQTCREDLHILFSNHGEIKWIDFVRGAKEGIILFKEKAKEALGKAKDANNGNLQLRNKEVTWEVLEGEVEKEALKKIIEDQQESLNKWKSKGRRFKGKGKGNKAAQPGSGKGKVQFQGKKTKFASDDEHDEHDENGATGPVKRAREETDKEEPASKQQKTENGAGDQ
The data set can be described thus: EMSA; EMSA: about 20 mM Tris-HCl pH 7.4, 150 mM NaCl, 3 mM MgCl2, 0.5 mM EDTA, IGEPAL, glycerol, 50 nM RNA, RT 10 min (with compounds: 18 mM Tris, 135 mM NaCl, 2.7 mM MgCl2, 0.45 mM EDTA, 0.025% IGEPAL, 2% glycerol, 10% DMSO); FP: 20 mM Tris-HCl pH 7.5, 3 mM MgCl2, 0.5 mM EDTA, 150 mM NaCl, 0.05% IGEPAL, 100 ug/ml BGG, RT 15 min. The settings on record: protein: recombinant, tags: His.

A further data set has as its target T3, La-RRM1+2 (human, UniProt P05455 111-348).
T3 sequence: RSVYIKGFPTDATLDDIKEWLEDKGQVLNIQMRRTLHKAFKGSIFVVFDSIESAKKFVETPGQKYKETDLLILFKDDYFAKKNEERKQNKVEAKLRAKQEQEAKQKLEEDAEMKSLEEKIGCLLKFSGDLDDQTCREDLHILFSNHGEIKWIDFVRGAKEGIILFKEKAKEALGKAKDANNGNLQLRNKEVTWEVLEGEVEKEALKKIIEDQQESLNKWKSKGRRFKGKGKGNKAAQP
The description is as above. The settings on record: protein: recombinant, tags: His.

The target in data set [4] is T2, La-WT (La autoantigen, LARP3). The data set can be described thus: competition; EMSA vs TOPf; EMSA: about 20 mM Tris-HCl pH 7.4, 150 mM NaCl, 3 mM MgCl2, 0.5 mM EDTA, IGEPAL, glycerol, 50 nM RNA, RT 10 min (with compounds: 18 mM Tris, 135 mM NaCl, 2.7 mM MgCl2, 0.45 mM EDTA, 0.025% IGEPAL, 2% glycerol, 10% DMSO); FP: 20 mM Tris-HCl pH 7.5, 3 mM MgCl2, 0.5 mM EDTA, 150 mM NaCl, 0.05% IGEPAL, 100 ug/ml BGG, RT 15 min. Particulars: protein: recombinant; tags: His; label: none.

In the case of `N.N.[Cl][Pt][Cl]` [cisplatin], the IC50 (commonly the concentration that gives 50% inhibition) in the data set on SCC 22B cells [1] (pretreatment with 50 μM C2.01, 48 hours) is 18000 nM; with SCC 22B cells [1] (vehicle (DMSO) pretreatment, 48 hours), 32000 nM; with SCC 22A cells, 12000 nM.

Consider `CCCCOC(=O)c1ccc2c(c1)C1C=CCC1C(C(=O)O)N2` (centres unmarked) [C6.02, 8-(butoxycarbonyl)-3a,4,5,9b-tetrahydro-3H-cyclopenta[c]quinoline-4-carboxylic acid], for which the “competition for La:fD1 interaction (EMSA), in words” value (shortened to “competition for La:fD1 interaction”) with La-WT:fD1-RNA complex is given as “slightly lower concentrations than C6.00”. Also, the “effect on SCC 22B cell numbers” value with SCC 22B cells [2] is listed as “reduced SCC 22B cell numbers even at low concentrations”. For the same molecule, in the data set with MRC5 cells, the “toxic effect on MRC5 cells (normal fibroblasts)” value (from here on “toxic effect on MRC5 cells”) was “toxic effect”.

Consider `O=C(O)c1ccccc1C(=O)c1ccc2ccccc2c1O` [C2.02, 2-(1-hydroxy-2-naphthoyl)benzoic acid], for which, in the data set with La-WT:fD1-RNA complex, the “competition for La:fD1 interaction” value was “lower concentration”. For the same molecule, the “effect on SCC 22B cell numbers” value in the data set with SCC 22B cells [2] is “no effect”. Further, in the data set with MRC5 cells, the “toxic effect on MRC5 cells” value was “toxic effect”.

Take `CC(C)COC(=O)c1ccc2c(c1)C1C=CCC1C(C(=O)O)N2` (centres unmarked) [C6.01, 8-(isobutoxycarbonyl)-3a,4,5,9b-tetrahydro-3H-cyclopenta[c]quinoline-4-carboxylic acid]: the “competition for La:fD1 interaction” value with La-WT:fD1-RNA complex is listed as “slightly lower concentrations than C6.00”. Moreover, in the data set with SCC 22B cells [2], the “effect on SCC 22B cell numbers” value is given as “reduced SCC 22B cell numbers even at low concentrations”. For the same molecule, in the data set on SCC 22B cells [2] (SCC 22B versus MRC5, 48 h), the “selectivity: cancer cell numbers compared to effect on normal MRC5 cells” value is on record as “preferentially reduced cancer cell numbers”. In addition, the “toxic effect on MRC5 cells” value in the data set on MRC5 cells is recorded as “toxic effect”.

B1: fPolyU (ssRNA)
RNA: UGCUGUUUU
As to B1, the dissociation constant (Kd) (usually the concentration at which binding is half-saturated) in data set [3] (no structure predicted) is 138 ± 12.6 nM. Besides, in the data set with La-RRM1+2 (no structure predicted), the binding result is “no binding”.

B2: TOPf (structured_RNA)
RNA: CCCUUUUCCCACCCCCUAGCGCCGCUGGGCCU
As to B2, the dissociation constant Kd in data set [3] (mfold predicted structure) was 147 ± 35.1 nM.

B3: capTOPf (structured_RNA)
RNA: B2 RNA
modifications: 5' m7G cap
On to B3, for which the dissociation constant Kd in data set [3] turned out to be 183 ± 15.3 nM.

B4: fD1 (structured_RNA)
RNA: GCUGCCCAGGAAGAGCCCCAGCCAUGGAACACCAGCUCCUGUGCUGC
B4: the results for the dissociation constant Kd (in data set [3] (hairpin (mfold prediction)); with La-RRM1+2 (hairpin (mfold prediction))) were 85 ± 7.5 nM and 81.7 ± 12.6 nM, respectively.

B5: TOP-mu2 (ssRNA)
RNA: GGCCCUUUUCCCACCCCCUAGCGCCGCUGGGCCU
Regarding B5, in data set [4], the binding result is reported as “binds”.
